Test results as given in the supplement of paper PMC10307832.

Tests used:
Test in all cases: relative viability (nuclei count vs DMSO), 5 days (fraction); higher = more cells survive
FH535 + Linsitinib = compound: CC1=C(C=CC(=C1)[N+](=O)[O-])NS(=O)(=O)C2=C(C=CC(=C2)Cl)Cl [FH535] + C[C@]1(O)C[C@@H](c2nc(-c3ccc4ccc(-c5ccccc5)nc4c3)c3c(N)nccn32)C1 [Linsitinib] (partner 1 µM)
Method in brief: (§1)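 Lung cancer cell lines, seeded in 1536-well plates, were treated the following day by pin tool with a single drug or with five library-drug doses (not always all listed) in √10 steps on top of a fixed anchor-drug dose. Cells were fixed and nuclei stained in one step after 5 days, and nuclei were counted. Relative viability is the nuclei count for treated wells divided by that for vehicle wells, reported as medians of duplicate plates.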

FH535 + Tozasertib = compound: CC1=C(C=CC(=C1)[N+](=O)[O-])NS(=O)(=O)C2=C(C=CC(=C2)Cl)Cl [FH535] + Cc1cc(Nc2cc(N3CCN(C)CC3)nc(Sc3ccc(NC(=O)C4CC4)cc3)n2)n[nH]1 [Tozasertib] (partner 0.1 µM)
Method in brief: as §1

FH535 + Dasatinib = compound: CC1=C(C=CC(=C1)[N+](=O)[O-])NS(=O)(=O)C2=C(C=CC(=C2)Cl)Cl [FH535] + Cc1nc(Nc2ncc(C(=O)Nc3c(C)cccc3Cl)s2)cc(N2CCN(CCO)CC2)n1 [Dasatinib] (partner 0.075 µM)
Method in brief: as §1

FH535 + Vorinostat = compound: CC1=C(C=CC(=C1)[N+](=O)[O-])NS(=O)(=O)C2=C(C=CC(=C2)Cl)Cl [FH535] + O=C(CCCCCCC(=O)Nc1ccccc1)NO [Vorinostat] (partner 1 µM)
Method in brief: as §1

FH535 + Olaparib = compound: CC1=C(C=CC(=C1)[N+](=O)[O-])NS(=O)(=O)C2=C(C=CC(=C2)Cl)Cl [FH535] + O=C(c1cc(Cc2n[nH]c(=O)c3ccccc23)ccc1F)N1CCN(C(=O)C2CC2)CC1 [Olaparib] (partner 8 µM)
Method in brief: as §1

| Cell Line | relative viability (FH535 + Linsitinib; first compound 0.04 µM) | relative viability (FH535 + Linsitinib; first compound 0.1265 µM) | relative viability (FH535 + Linsitinib; first compound 0.4 µM) | relative viability (FH535 + Linsitinib; first compound 1.265 µM) | relative viability (FH535 + Tozasertib; first compound 0.04 µM) | relative viability (FH535 + Tozasertib; first compound 0.1265 µM) | relative viability (FH535 + Tozasertib; first compound 0.4 µM) | relative viability (FH535 + Tozasertib; first compound 1.265 µM) | relative viability (FH535 + Dasatinib; first compound 0.04 µM) | relative viability (FH535 + Dasatinib; first compound 0.1265 µM) | relative viability (FH535 + Dasatinib; first compound 0.4 µM) | relative viability (FH535 + Dasatinib; first compound 1.265 µM) | relative viability (FH535 + Vorinostat; first compound 0.04 µM) | relative viability (FH535 + Vorinostat; first compound 0.1265 µM) | relative viability (FH535 + Vorinostat; first compound 0.4 µM) | relative viability (FH535 + Vorinostat; first compound 1.265 µM) | relative viability (FH535 + Olaparib; first compound 0.04 µM) | relative viability (FH535 + Olaparib; first compound 0.1265 µM) | relative viability (FH535 + Olaparib; first compound 0.4 µM) | relative viability (FH535 + Olaparib; first compound 1.265 µM) |
| --- | --- | --- | --- | --- | --- | --- | --- | --- | --- | --- | --- | --- | --- | --- | --- | --- | --- | --- | --- | --- |
| 201T | 1.05 | 1.03 | 0.95 | 0.964 | 0.919 | 0.953 | 0.976 | 0.743 | 0.555 | 0.568 | 0.437 | 0.442 | 0.905 | 0.948 | 0.855 | 0.929 | 0.812 | 0.856 | 0.827 | 0.59 |
| A549 | 0.497 | 0.627 | 0.641 | 0.568 |  |  |  |  |  |  |  |  |  |  |  |  | 0.28 | 0.306 | 0.284 | 0.299 |
| A-427 | 1.13 | 1.18 | 1.07 | 0.981 | 0.175 | 0.205 | 0.243 | 0.159 | 0.54 | 0.826 | 0.657 | 0.564 | 0.862 | 0.846 | 0.845 | 0.725 | 0.799 | 0.774 | 0.731 | 0.513 |
| ABC-1 | 0.963 | 0.836 | 0.864 | 0.788 | 0.181 | 0.216 | 0.218 | 0.217 | 0.584 | 0.619 | 0.4 | 0.36 | 0.944 | 1 | 0.934 | 0.607 | 0.705 | 0.896 | 0.94 | 0.37 |
| BEN | 0.811 | 0.976 | 0.918 | 0.508 | 0.547 | 0.483 | 0.483 | 0.487 | 0.247 | 0.351 | 0.258 | 0.214 | 0.51 | 0.583 | 0.548 | 0.525 | 1.02 | 1.1 | 0.831 | 0.636 |
| CAL-12T | 0.871 | 0.796 | 0.712 | 0.598 | 0.288 | 0.324 | 0.243 | 0.212 | 0.361 | 0.417 | 0.291 | 0.235 | 0.562 | 0.927 | 0.802 | 0.492 | 0.693 | 0.813 | 0.612 | 0.411 |
| COR-L23 | 0.926 | 0.889 | 0.722 | 0.581 | 0.183 | 0.17 | 0.185 | 0.167 | 0.447 | 0.437 | 0.38 | 0.222 | 0.442 | 0.462 | 0.422 | 0.343 | 0.375 | 0.35 | 0.309 | 0.244 |
| COR-L 105 | 0.903 | 0.933 | 0.894 | 0.91 | 0.359 | 0.339 | 0.337 | 0.304 | 0.292 | 0.325 | 0.314 | 0.333 | 0.793 | 0.857 | 0.848 | 0.876 | 0.693 | 0.699 | 0.747 | 0.648 |
| ChaGo-K-1 |  |  |  |  | 0.225 | 0.236 | 0.216 | 0.202 | 0.581 | 0.563 | 0.54 | 0.563 | 0.469 | 0.732 | 0.693 | 0.59 | 0.384 | 0.404 | 0.403 | 0.286 |
| EKVX | 1.03 | 1.05 | 0.967 | 0.854 | 0.405 | 0.402 | 0.452 | 0.333 | 0.336 | 0.705 | 0.511 | 0.243 | 0.403 | 0.819 | 0.693 | 0.222 | 0.737 | 0.906 | 0.903 | 0.762 |
| HCC-44 | 0.704 | 0.647 | 0.705 | 0.469 | 0.916 | 1 | 0.933 | 0.756 |  |  |  |  | 1.11 | 1.1 | 1.03 | 0.818 | 0.976 | 0.929 | 0.969 | 0.768 |
| NCI-H522 |  |  |  |  | 0.529 | 0.502 | 0.601 | 0.534 | 0.882 | 0.862 | 0.827 | 0.979 | 0.855 | 0.858 | 0.731 | 0.78 | 0.686 | 0.717 | 0.632 | 0.467 |
| NCI-H1650 |  |  |  |  | 0.369 | 0.425 | 0.513 | 0.343 | 0.281 | 0.299 | 0.3 | 0.297 | 0.492 | 0.564 | 0.509 | 0.441 | 0.841 | 0.741 | 0.698 | 0.641 |
| NCI-H1703 | 1.02 | 0.635 | 0.561 | 0.564 |  |  |  |  |  |  |  |  |  |  |  |  | 0.429 | 0.461 | 0.486 | 0.392 |
| NCI-H1792 | 0.54 | 0.601 | 0.527 | 0.396 |  |  |  |  | 0.661 | 0.761 | 0.701 | 0.543 |  |  |  |  | 0.463 | 0.329 | 0.39 | 0.345 |
| NCI-H2170 |  |  |  |  | 0.674 | 0.772 | 0.69 | 0.697 | 0.664 | 0.611 | 0.429 | 0.625 | 0.713 | 0.816 | 0.768 | 0.69 | 0.624 | 0.585 | 0.49 | 0.389 |
| NCI-H2342 |  |  |  |  | 0.541 | 0.564 | 0.445 | 0.454 | 0.305 | 0.339 | 0.281 | 0.297 | 0.674 | 0.725 | 0.87 | 0.721 | 0.471 | 0.487 | 0.434 | 0.363 |
